Data as given in patent publication US7795290B2 (Genentech, Inc., priority 2004, dated 2010).

The compounds below were run against T1, AKT1 (Homo sapiens, UniProt P31749) (assay: HTS ATP-utilizing enzyme assay, off-chip mobility-shift (Caliper HTS 250)). Conditions: kinase named = inhibitory activity/selectivity; test compound 10 μM; active = greater than three-sigma from mean.
T1 construct: purchased Upstate 14-276
Format: biochemical
In short: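 AKT1 activity was measured by off-chip mobility shift (Caliper HTS 250) as the ratio of peptide substrate to phosphorylated product. Test compound was at 10 μM, with 2.5 h incubation at 20–22° C. EDTA wells served as 100% control and DMSO wells as 0%. Hits were called at three-sigma limits.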

T1 sequence (P31749 whole entry): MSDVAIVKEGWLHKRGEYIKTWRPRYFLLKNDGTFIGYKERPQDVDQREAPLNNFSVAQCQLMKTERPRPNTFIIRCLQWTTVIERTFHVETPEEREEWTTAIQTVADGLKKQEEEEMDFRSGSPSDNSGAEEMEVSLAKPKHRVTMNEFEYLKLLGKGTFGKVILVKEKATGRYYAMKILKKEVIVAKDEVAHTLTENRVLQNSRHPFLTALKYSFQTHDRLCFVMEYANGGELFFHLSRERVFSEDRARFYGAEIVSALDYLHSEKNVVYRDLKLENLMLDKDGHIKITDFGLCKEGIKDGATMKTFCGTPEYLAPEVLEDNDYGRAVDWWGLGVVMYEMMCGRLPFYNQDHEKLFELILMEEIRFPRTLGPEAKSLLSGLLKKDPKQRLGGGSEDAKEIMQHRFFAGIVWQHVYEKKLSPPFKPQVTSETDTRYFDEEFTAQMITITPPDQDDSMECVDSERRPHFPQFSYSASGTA

Row | SMILES | Activity
1 | CC(=O)NC1CCN(C(=O)CCN(C(=O)c2cccs2)c2nc(-c3cc4ccccc4o3)cs2)C1 (centres unmarked) [N-(3-(3-acetamidopyrrolidin-1-yl)-3-oxopropyl)-N-(4-(benzofuran-2-yl)thiazol-2-yl)thiophene-2-carboxamide] | AKT1
2 | O=C1CCCN1CCCN(C(=O)c1cccs1)c1nc(-c2cc3ccccc3o2)cs1 [N-(4-(benzofuran-2-yl)thiazol-2-yl)-N-(3-(2-oxopyrrolidin-1-yl)propyl)thiophene-2-carboxamide] | AKT1
3 | COC(=O)CNC(=O)CCCN(C(=O)c1cccs1)c1nc(-c2cc3ccccc3o2)cs1 [methyl 2-(4-(N-(4-(benzofuran-2-yl)thiazol-2-yl)thiophene-2-carboxamido)butanamido)acetate] | AKT1
4 | CCN(CC)CCCN(C(=O)c1ccco1)c1nc(-c2cc(OC)ccc2OC)cs1 [N-(3-(diethylamino)propyl)-N-(4-(2,5-dimethoxyphenyl)thiazol-2-yl)furan-2-carboxamide] | AKT1
5 | CN(C)CCNC(=O)c1ccc(-c2csc(N(CCCN3CCOCC3)C(=O)c3cccs3)n2)cc1 [N-(4-(4-(2-(dimethylamino)ethylcarbamoyl)phenyl)thiazol-2-yl)-N-(3-morpholinopropyl)thiophene-2-carboxamide] | AKT1
6 | COc1ccc(-c2csc(N(CCCN3CCOCC3)C(=O)c3cccs3)n2)cn1 [N-(4-(6-methoxypyridin-3-yl)thiazol-2-yl)-N-(3-morpholinopropyl)thiophene-2-carboxamide] | AKT1
7 | CN(C)C1CCN(C(=O)CCN(C(=O)c2cccs2)c2nc(-c3cc4ccccc4o3)cs2)C1 (centres unmarked) [N-(4-(benzofuran-2-yl)thiazol-2-yl)-N-(3-(3-(dimethylamino)pyrrolidin-1-yl)-3-oxopropyl)thiophene-2-carboxamide] | AKT1
8 | O=C(c1cccs1)N(CCCN1CCOCC1)c1nc(-c2ccc3c(c2)OCCO3)cs1 [N-(4-(2,3-dihydrobenzo[b][1,4]dioxin-6-yl)thiazol-2-yl)-N-(3-morpholinopropyl)thiophene-2-carboxamide] | AKT1
9 | O=C(CCN(C(=O)c1cccs1)c1nc(-c2cc3ccccc3o2)cs1)N1CCCC(CO)C1 (centres unmarked) [N-(4-(benzofuran-2-yl)thiazol-2-yl)-N-(3-(3-(hydroxymethyl)piperidin-1-yl)-3-oxopropyl)thiophene-2-carboxamide] | AKT1
10 | O=C(c1cccs1)N(CCCN1CCOCC1)c1nc(-c2ccccc2Cl)cs1 [N-(4-(2-chlorophenyl)thiazol-2-yl)-N-(3-morpholinopropyl)thiophene-2-carboxamide] | AKT1
11 | COc1ccc(OC)c(-c2csc(N(CCCN3CCN(C)CC3)C(=O)c3cccs3)n2)c1 [N-(4-(2,5-dimethoxyphenyl)thiazol-2-yl)-N-(3-(4-methylpiperazin-1-yl)propyl)thiophene-2-carboxamide] | AKT1
12 | O=C(c1cccs1)N(CCCN1CCC(N2CCOCC2)CC1)c1nc(-c2cc3ccccc3o2)cs1 [N-(4-(benzofuran-2-yl)thiazol-2-yl)-N-(3-(4-morpholinopiperidin-1-yl)propyl)thiophene-2-carboxamide] | AKT1
13 | O=C1CCCN1CCCN(C(=O)c1ccco1)c1nc(-c2cc3ccccc3o2)cs1 [N-(4-(benzofuran-2-yl)thiazol-2-yl)-N-(3-(2-oxopyrrolidin-1-yl)propyl)furan-2-carboxamide] | AKT1
14 | COc1ccc(-c2csc(N(CCCN3CCOCC3)C(=O)C3CCCC3)n2)cc1OC [N-(4-(3,4-dimethoxyphenyl)thiazol-2-yl)-N-(3-morpholinopropyl)cyclopentanecarboxamide] | AKT1
15 | O=C(c1cccs1)N(CCCN1CCOCC1)c1nc(-c2ccc(-c3ccccc3)cc2)cs1 [N-(4-(biphenyl-4-yl)thiazol-2-yl)-N-(3-morpholinopropyl)thiophene-2-carboxamide] | AKT1
16 | COCCN1CCN(CCCN(C(=O)c2cccs2)c2nc(-c3cc4ccccc4o3)cs2)CC1 [N-(4-(benzofuran-2-yl)thiazol-2-yl)-N-(3-(4-(2-methoxyethyl)piperazin-1-yl)propyl)thiophene-2-carboxamide] | AKT1
17 | COc1ccc(-c2csc(N(CCCN3CCCCCC3)C(=O)c3cccs3)n2)cc1 [N-(3-(azepan-1-yl)propyl)-N-(4-(4-methoxyphenyl)thiazol-2-yl)thiophene-2-carboxamide] | AKT1
18 | O=C(CCCN(C(=O)c1cccs1)c1nc(-c2cc3ccccc3o2)cs1)N1CCSC1 [N-(4-(benzofuran-2-yl)thiazol-2-yl)-N-(4-oxo-4-(thiazolidin-3-yl)butyl)thiophene-2-carboxamide] | AKT1
19 | CN(CCO)C(=O)CCN(C(=O)c1cccs1)c1nc(-c2cc3ccccc3o2)cs1 [N-(4-(benzofuran-2-yl)thiazol-2-yl)-N-(3-((2-hydroxyethyl)(methyl)amino)-3-oxopropyl)thiophene-2-carboxamide] | AKT1

Row | SMILES | Activity
20 | COc1ccc(-c2csc(N(CCCN3CCOCC3)C(=O)c3sccc3C)n2)cc1 [N-(4-(4-methoxyphenyl)thiazol-2-yl)-3-methyl-N-(3-morpholinopropyl)thiophene-2-carboxamide] | AKT1
21 | COc1ccc(-c2csc(N(CCCN3CCOCC3)C(=O)c3ccccc3)n2)cc1 [N-(4-(4-methoxyphenyl)thiazol-2-yl)-N-(3-morpholinopropyl)benzamide] | AKT1
22 | O=C(c1cccs1)N(CCCC(=O)N1CCCC1c1cccnc1)c1nc(-c2cc3ccccc3o2)cs1 (centres unmarked) [N-(4-(benzofuran-2-yl)thiazol-2-yl)-N-(4-oxo-4-(2-(pyridin-3-yl)pyrrolidin-1-yl)butyl)thiophene-2-carboxamide] | AKT1
23 | CN(C)CCN1CCN(C(=O)CCCN(C(=O)c2cccs2)c2nc(-c3cc4ccccc4o3)cs2)CC1 [N-(4-(benzofuran-2-yl)thiazol-2-yl)-N-(4-(4-(2-(dimethylamino)ethyl)piperazin-1-yl)-4-oxobutyl)thiophene-2-carboxamide] | AKT1
24 | O=C(c1cccs1)N(CCCN1CCOCC1)c1nc(-c2cc(-c3ccc(Cl)cc3)no2)cs1 [N-(4-(3-(4-chlorophenyl)isoxazol-5-yl)thiazol-2-yl)-N-(3-morpholinopropyl)thiophene-2-carboxamide] | AKT1
25 | CCOC(=O)CC(C)(C)c1csc(N(CCCN2CCOCC2)C(=O)c2cccs2)n1 [ethyl 3-methyl-3-(2-(N-(3-morpholinopropyl)thiophene-2-carboxamido)thiazol-4-yl)butanoate] | AKT1
26 | CC(C)(C)OC(=O)NC1CCN(CCCN(C(=O)c2cccs2)c2nc(-c3cc4ccccc4o3)cs2)C1 (centres unmarked) [tert-butyl 1-(3-(N-(4-(benzofuran-2-yl)thiazol-2-yl)thiophene-2-carboxamido)propyl)pyrrolidin-3-ylcarbamate] | AKT1
27 | CCOC(=O)C1CCCCN1CCCN(C(=O)c1cccs1)c1nc(-c2cc3ccccc3o2)cs1 (centres unmarked) [ethyl 1-(3-(N-(4-(benzofuran-2-yl)thiazol-2-yl)thiophene-2-carboxamido)propyl)piperidine-2-carboxylate] | AKT1
28 | CC(C)(C)OC(=O)N1CCN(CCCN(C(=O)c2cccs2)c2nc(-c3cc4ccccc4o3)cs2)CC1 [tert-butyl 4-(3-(N-(4-(benzofuran-2-yl)thiazol-2-yl)thiophene-2-carboxamido)propyl)piperazine-1-carboxylate] | AKT1
29 | O=C(c1cccs1)N(CCCN1CCC(CCO)CC1)c1nc(-c2cc3ccccc3o2)cs1 [N-(4-(benzofuran-2-yl)thiazol-2-yl)-N-(3-(4-(2-hydroxyethyl)piperidin-1-yl)propyl)thiophene-2-carboxamide] | AKT1
30 | O=C(c1cccs1)N(CCCN1CCOCC1)c1nc(-c2cc(-c3ccccc3)no2)cs1 [N-(3-morpholinopropyl)-N-(4-(3-phenylisoxazol-5-yl)thiazol-2-yl)thiophene-2-carboxamide] | AKT1
31 | CN(CC(O)CO)C(=O)CCN(C(=O)c1cccs1)c1nc(-c2cc3ccccc3o2)cs1 (centres unmarked) [N-(4-(benzofuran-2-yl)thiazol-2-yl)-N-(3-((2,3-dihydroxypropyl)(methyl)amino)-3-oxopropyl)thiophene-2-carboxamide] | AKT1
32 | CC(=O)N1CCN(CCCN(C(=O)c2cccs2)c2nc(-c3cc4ccccc4o3)cs2)CC1 [N-(3-(4-acetylpiperazin-1-yl)propyl)-N-(4-(benzofuran-2-yl)thiazol-2-yl)thiophene-2-carboxamide] | AKT1
33 | NC(=O)C1CCCCN1CCCN(C(=O)c1cccs1)c1nc(-c2cc3ccccc3o2)cs1 (centres unmarked) [1-(3-(N-(4-(benzofuran-2-yl)thiazol-2-yl)thiophene-2-carboxamido)propyl)piperidine-2-carboxamide] | AKT1
34 | COc1ccc(-c2csc(N(CCN3CCOCC3)C(=O)c3cccs3)n2)cc1OC [N-(4-(3,4-dimethoxyphenyl)thiazol-2-yl)-N-(2-morpholinoethyl)thiophene-2-carboxamide] | AKT1
35 | Cn1cccc1C(=O)N(CCCN1CCOCC1)c1nc(-c2cc(-c3ccccc3)no2)cs1 [1-methyl-N-(3-morpholinopropyl)-N-(4-(3-phenylisoxazol-5-yl)thiazol-2-yl)-1H-pyrrole-2-carboxamide] | AKT1
36 | O=C(c1cccs1)N(CCCN1CCCCC1CCO)c1nc(-c2cc3ccccc3o2)cs1 (centres unmarked) [N-(4-(benzofuran-2-yl)thiazol-2-yl)-N-(3-(2-(2-hydroxyethyl)piperidin-1-yl)propyl)thiophene-2-carboxamide] | AKT1
37 | COc1ccc(-c2csc(N(CCCN3CCOCC3)C(=O)c3ccco3)n2)cc1OC [N-(4-(3,4-dimethoxyphenyl)thiazol-2-yl)-N-(3-morpholinopropyl)furan-2-carboxamide] | AKT1
38 | COC(=O)CNC(=O)CCN(C(=O)c1cccs1)c1nc(-c2cc3ccccc3o2)cs1 [methyl 2-(3-(N-(4-(benzofuran-2-yl)thiazol-2-yl)thiophene-2-carboxamido)propanamido)acetate] | AKT1
